We go through three molecules from US20090018106A1, “INTRAVENOUS FORMULATIONS OF PYRIDOXAL 5'- PHOSPHATE AND METHOD OF PREPARATION” (Medicure International Inc., priority 2005, published 2009).

One data set can be described thus: clinical. The arrangement: species or system human. The settings on record: in vivo; for AUC: AUC0-τ; for half-life: T1/2 el. The method, then: (§1) Data sets analyzed—Six (6) healthy, adult non-smokers were administered intravenously a single daily dose of 10 mg/kb of P5P for four consecutive days and completed the study. In accordance with the study protocol, data from all subjects who completed the study were used for pharmacokinetic and statistical analysis.
(§2) Analytical Methods—Plasma and urine samples were used for analysis. P5P, PAL, and PA levels were determined by HPLC/FLD. The quantitation level was 5 ng/mL for plasma and 100 ng/mL for urine. The sample analysis calibration curve range was 5 ng/mL to 5000 ng/mL for plasma and 100 ng/mL to 50,000 ng/mL for urine.
When the difference exceeded this time limit, the actual sampling times (rounded off to three decimal digits) were used to calculate pharmacokinetic parameters except for pre-dose samples, which were always reported as zero (0.000), regardless of time deviations. Scheduled sampling times are presented in concentration tables and graphs of the statistical section of the report.
Pharmacokinetic analyses (non-compartmental and compartmental) were performed at SFBC Anapharm. Pharmacokinetic parameters were calculated using either Bioequiv (release 3.40) or WinNonLin™ (release 4.0.1). Bioequiv is proprietary software developed and tested for bioequivalence studies at SFBC Anapharm. This software performs non-compartmental analyses of pharmacokinetic parameters and statistical analyses (via SAS release 6.12) according to FDA, HPFB and BMEA guidance.
The mean, standard deviation (SD), coefficient of variation (CV (%)) and range (min. and max.) were calculated for plasma concentrations of P5P (both baseline corrected and uncorrected), PAL and PA for each sampling time and treatment.
For the non-compartmental pharmacokinetic analyses the mean. SD, CV (%). range (min. and max.), median and interquartile range were calculated for the AUC0-t, (ng·h/mL), AUC0-t (ng·h/mL), AUC0-inf (ng·h/mL), Cmax (ng/mL), Cmin (ng/mL), Cavg (ng/mL), Fl(%), Ae0-t (ng), AUC^t/inf (%), Tmax (h), T1/2 el (h), Kel (h^−1), TLIN (h), LQCT (h). CLT (L/h), CLR (L/h). Vβ (L), MRT (h) and Accumulation ratio. The calculation of these pharmacokinetic parameters is explained below.
Cmax the maximum observed concentration, and Tmax, the time to reach that peak concentration, were determined for each subject and for each analyte. For Day 4 data, Cmin the minimum observed concentration was determined for each subject and for each analyte and Cavg was calculated as AUC0-τ/τ.
Percentage of Fluctuation—For Day 4 data, the peak-through percentage of fluctuation over one dosing interval (Fl(%)) was calculated as: 100*([Cmax−Cmin]/Cavg)
Half-Life and Elimination Rate Constant—To calculate the elimination rate constant (Kel), regression analyses were performed on the natural log(Ln) of plasma concentration values (y) versus time (x). Calculations were made between a time point where log-linear elimination phase begins (TLIN) and the time at which the last concentration above the limit of quantification (LQCT) occurred. The Kel was taken as the slope multiplied by (−1) and the apparent half-life (T1/2 el) as (In 2)/Kel.
TLIN and LQCT—TLIN, the time point where In-linear Kel calculation begins, and LQCT, the sampling time of the last quantifiable concentration used to estimate the Kel were determined by the scientist (according to SFBC Anapharm's standard operating procedures) for each subject and for each treatment. At least 4 non-zero observations during the terminal elimination phase were used to calculate the Kel. A minimum of 3 observations were used if less than 4 observations were available.
Areas Under the Concentration-Time Curves—AUC0-t was calculated using the linear trapezoidal rule from time 0.000 h until the last non-zero concentration.
AUC0-τ was calculated using the linear trapezoidal rule from time 0.000 h until 24.0 h.
The AUC0-inf was calculated as: […]

Data set [1] is described as follows: Once daily intravenous 10 mg/kg P5P for four days, urinary excretion and renal clearance (Example Four). The class given is in vivo, human. The settings on record: 4 days, mean; for CL renal: human, urine and plasma, iv, 10 mg/kg, read-out: CLR, renal clearance (converted). Here is the method:
as §1, §2
Total and Renal Clearance—Total body clearance was estimated for P5P and was calculated as Dose/AUC0-inf.

Setting [2] is: 10 mg/kg iv once daily, Day 1, P5P uncorrected.
Where [3] appears, read: 10 mg/kg iv once daily, Day 4, P5P uncorrected.
[4] abbreviates: P5P 10 mg/kg iv once daily, Day 1, PA.
Setting [5] is: P5P 10 mg/kg iv once daily, Day 4, PA.
Setting [6] is: P5P 10 mg/kg iv once daily, Day 1, PAL.
Setting [7] is: P5P 10 mg/kg iv once daily, Day 4, PAL.

Read-outs that look alike come from different tables or passages of the source.

For the molecule `Cc1ncc(COP(=O)(O)O)c(C=O)c1O` [P5P, Pyridoxal 5′-phosphate, reference compound], the time to peak (Tmax) in the data set “clinical” (human, Tmax) came to 0.067 h. Moreover, in the data set “clinical” (human, iv, 10 mg/kg), the AUC0-τ is 303393.72 ng·h/mL, the time to peak (Tmax) is 0.081 h, the area under the curve (AUC) was found to be 303000 ng·h/mL and the MRT was 3.4 h. For the same molecule, in “clinical” (human, iv, 10 mg/kg), the half-life is 5.14 h. In “clinical” (human, iv, 10 mg/kg, AUC0-inf), this molecule gave an AUC(0-inf) of 283000 ng·h/mL. Also, in the data set “clinical” (human, iv, 10 mg/kg, AUC0-t), the area under the curve AUC(0-t) is 278000 ng·h/mL. In addition, in the data set “clinical” (human, iv, 10 mg/kg, CLτ (text: CLT, total body clearance)), the clearance was 42.5 mL/min. Besides, the peak level in “clinical” (human, iv, 10 mg/kg, Cmax) (Cmax) was 191000 ng/mL. The time to peak (Tmax) in “clinical” (human, iv, 10 mg/kg, Tmax) amounted to 0.089 h. In “clinical”, the “ANOVA, difference between treatment days” value is given as “did not detect any statistically significant difference”. Moreover, in data set [1] (setting [2]), the “Ae0-t, total amount excreted in urine” value is on record as 848625 ng and the CL renal is 0.0465 mL/min. Besides, in data set [1] (setting [3]), the “Ae0-t, total amount excreted in urine” value is listed as 558650 ng and the CL renal was 0.029 mL/min.

`Cc1ncc(CO)c(C(=O)O)c1O` [PA, 4-pyridoxic acid]: in “clinical” (human), the “Ratio of LS Means, AUC0-inf” value amounted to 99.47%; the “Ratio of LS Means, AUC0-t” value is given as 99.75%; the “Ratio of LS Means, Cmax” value is recorded as 97.17%. In “clinical” (human, iv, 10 mg/kg), the area under the curve AUC(0-inf) is 21097.95 ng·h/mL, the exposure AUC(0-t) worked out at 20704.80 ng·h/mL, the Cmax came to 4238 ng/mL and the time to peak (Tmax) worked out at 0.528 h. Also, in the data set “clinical” (human, iv, 10 mg/kg), the area under the curve (AUC) turned out to be 21200 ng·h/mL, the MRT came out at 3.85 h and the half-life is 2.3 h. In “clinical” (human, iv, 10 mg/kg, AUC0-inf), the AUC(0-inf) worked out at 21200 ng·h/mL. In “clinical” (human, iv, 10 mg/kg, AUC0-t), this molecule showed an area under the curve AUC(0-t) of 20700 ng·h/mL. The molecule also gave a Cmax in the data set “clinical” (human, iv, 10 mg/kg, Cmax) of 4360 ng/mL. In addition, the time to peak (Tmax) in the data set “clinical” (human, iv, 10 mg/kg, Tmax) was found to be 0.611 h. Further, the “ANOVA, difference between treatment days” value in the data set “clinical” is “did not detect any statistically significant difference”. For the same molecule, in data set [1] (setting [4]), the “Ae0-t, total amount excreted in urine” value was 172950596 ng and the CL renal was 144 mL/min. Besides, in data set [1] (setting [5]), the “Ae0-t, total amount excreted in urine” value was determined as 225885311 ng and the CL renal was 179 mL/min.

On to `Cc1ncc(CO)c(C=O)c1O` [PAL, pyridoxal], for which, in the data set “clinical” (human), the “ANOVA, difference between treatment days” value was “statistically significant difference between treatment days was detected using ANOVA for In-transformed AUC0-t, and AUC0-inf but not for Cmax”; the “Ratio of LS Means, AUC0-inf” value was determined as 133.70%; the “Ratio of LS Means, AUC0-t” value came to 132.83%; the “Ratio of LS Means, Cmax” value stood at 101.45%. In addition, in the data set “clinical” (human, iv, 10 mg/kg), the total exposure AUC(0-inf) worked out at 30077.45 ng·h/mL, the AUC(0-t) came to 29682.94 ng·h/mL, the Cmax is 6902 ng/mL and the time to peak (Tmax) turned out to be 0.691 h. In “clinical” (human, iv, 10 mg/kg), this molecule had an AUC of 29700 ng·h/mL, a mean residence time (MRT) of 4.06 h and a half-life of 3.4 h. Also, the total exposure AUC(0-inf) in the data set “clinical” (human, iv, 10 mg/kg, AUC0-inf) is 22400 ng·h/mL. The same molecule gave an AUC(0-t) in the data set “clinical” (human, iv, 10 mg/kg, AUC0-t) of 22300 ng·h/mL. This molecule displayed a peak concentration (Cmax) in “clinical” (human, iv, 10 mg/kg, Cmax) of 7630 ng/mL. The time to peak (Tmax) in “clinical” (human, iv, 10 mg/kg, Tmax) was found to be 0.525 h. Also, in data set [1] (setting [6]), the “Ae0-t, total amount excreted in urine” value is recorded as 18583712 ng and the CL renal is 14.3 mL/min. In data set [1] (setting [7]), the “Ae0-t, total amount excreted in urine” value is recorded as 21011635 ng and the CL renal was 12.1 mL/min.
